According to patent US10723727B2, “Tubulysin analogs and methods for their preparation” (priority 2016, dated 2020):
pIC50: −log10 of the molar value.

What was measured:
[1] = test system: MDA-MB-361-DYT2 (breast cancer) cells; assay: In vitro cell assay (MTS cell viability), MDA-MB-361-DYT2; format: cell-based; details: 96 h, free compounds; 96 hours after treatment
Outline: (§1)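 Cells seeded 24 h before treatment with antibody-drug conjugates or free compounds, 3-fold serial dilutions at 10 concentrations in duplicate. Viability read by MTS assay 96 h after treatment as % of untreated control; IC50 from four-parameter logistic fit.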

[2] = test system: N87 (gastric cancer) cells; assay: In vitro cell assay (MTS cell viability), N87; format: cell-based; details: 96 h, free compounds; 96 hours after treatment
Outline: as §1

[3] = test system: HT-29 cells; assay: In vitro cell assay (MTS cell viability), HT-29 (target non-expressing); format: cell-based; details: Homo sapiens, HT-29, 96 h, free compounds; 96 hours after treatment; read-out: HT29 IC50
Outline: as §1

[4] = biological target: T1, tubulin/RB3-stathmin-like-domain (RB3-SLD-tdm) complex (Sus scrofa, UniProt P02550+P02554); assay: Tubulin Peptide-Binding Site Competition Assay (fluorescence polarization); set-up: species or system Porcine; details: FP competition with BODIPY-labeled vinca peptide probe; read after five hours at 22° C.; read-out: Tubulin Peptide-Binding Site Competition Assay IC50
T1 construct: purchased Cytoskeleton, Inc. T240; host or cells: RB3-SLD was made in house in E. coli
Outline: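 The BODIPY vinca-peptide probe was premixed with test compound and then added to porcine tubulin/RB3-SLD, at final concentrations of 3 nM probe, 6 nM tubulin and 100 nM RB3-SLD. The buffer was PIPES pH 7.0 with Tween 20, MgCl2 and EGTA, and 11-point dilutions were run in duplicate. IC50 was fitted from the fluorescence polarization decrease and converted to Ki.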

## CC[C@H](C)[C@H](NC(=O)[C@@]1(C)CCCN1C)C(=O)N(C)[C@H](C[C@@H](OC(C)=O)c1nc(C(=O)N[C@@H](Cc2ccc(N)cc2)c2nccs2)cs1)C(C)C [#B80, 1,2-dimethyl-D-prolyl-N-[(1R,3R)-1-(acetyloxy)-1-(4-{[(1S)-2-(4-aminophenyl)-1-(1,3-thiazol-2-yl)ethyl]carbamoyl}-1,3-thiazol-2-yl)-4-methylpentan-3-yl]-N-methyl-L-isoleucinamide]
[1]
  pIC50: 8.38
[2]
  pIC50: 7.73
[3]
  pIC50: 8.33
[4]
  pIC50: 8.19
